# What was measured:
# NanoLuc = NanoLuc (Oplophorus gracilirostris, UniProt Q9GV45, A31E/A60N/A81I/F95D/I117V/K70R/L54V/L99Q/M102K/N193R/P142E/Q151K/Q38R/Q45L/V71I/Y165I); experiment: NANOLUC® (Nluc) inhibitory activity (FIG. 2); format: biochemical; details: Nluc 2 ng/ml in NanoGlo® buffer, 100 μM furimazine
# Description: FIG. 2 compares the NANOLUC® (Nluc) inhibitory activity of exemplary compounds of the present invention to PBI-6096, a known Nluc inhibitor. Inhibitors were diluted into CO2-independent media with 10% FBS. Nluc was diluted to 2 ng/ml into NanoGlo® buffer with 100 μM furimazine. Serial dilutions of the inhibitors were added to the NanoLuc/furimazine/NanoGlo® solution, and samples were immediately analyzed using a GloMax®-Multi+ Plate Reader.
# [1] = test system: NanoBiT® HiBit/LgBit bioluminescent complex; experiment: Inhibition of bioluminescent complex in lysed HEK293 cells expressing HiBiT fusion plus purified LgBiT (FIG. 3A); format: cell-based, Oplophorus gracilirostris; details: HEK293 cells lysed with digitonin, purified LgBiT added, 2 hours, 10 μM furimazine
# Description: FIGS. 3A-3B show the inhibition of bioluminescent complexes in cells. In FIG. 3A, HEK293 cells were transfected with DNA encoding an intracellular NanoBiT® HiBiT fusion protein, plated at 20,000 cells/100 μL growth medium, and incubated for 24 hours. Following 24 hours of expression, cells were lysed with 50 ug/mL (final) of digitonin in OptiMEM and treated with purified NanoBiT® LgBiT non-luminescent polypeptide and serial dilutions of HL-0005. After 2 hours of incubation at room temperature, furimazine was added (10 μM final concentration), and luminescence was measured on a GloMax®-Multi+ Plate Reader.
# [2] = test system: NanoBiT® HiBit/LgBit bioluminescent complex; format: cell-based, Oplophorus gracilirostris; details: HEK293 cells, optionally lysed with 50 ug/mL digitonin
# Description: In FIG. 3B, HEK293 cells were transfected with DNA encoding an intracellular NanoBiT® HiBiT fusion protein and DNA encoding an intracellular NanoBiT® LgBiT fusion protein such that the fusion proteins were co-expressed within the cell. Transfected cells were plated at 20,000 cells/100 μL growth medium and incubated for 24 hours. Following 24 hours of expression, cells were optionally lysed with 50 ug/mL of digitonin in OptiMEM and treated with serial dilutions of HL-0005. After 2 hours of incubation at room temperature, furimazine was added (10 μM final concentration), and luminescence was measured on a GloMax® Multi+ Plate Reader.
# Sequence of NanoLuc (Q9GV45 28-196 with tags or gaps with the stated changes limits assumed): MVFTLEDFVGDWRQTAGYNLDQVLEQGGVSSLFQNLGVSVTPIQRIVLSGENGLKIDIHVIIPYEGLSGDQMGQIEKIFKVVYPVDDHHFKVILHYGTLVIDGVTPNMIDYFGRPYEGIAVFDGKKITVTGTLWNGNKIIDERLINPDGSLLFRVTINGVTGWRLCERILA
Structure (SMILES),inhibition against NanoLuc (NanoLuc),inhibition of HiBit/LgBit bioluminescent complex in a cellular context [1],cell permeability (IC50 values in lytic and non-lytic conditions compared) [2]
"Cc1ccc(S(=O)(=O)Nc2ccccc2C(=O)Nc2sc3c(c2C#N)CCCC3)cc1 [JRW-1004, N-(3-cyano-4,5,6,7-tetrahydrobenzo[b]thiophen-2-yl)-2-((4-methylphenyl)sulfonamido)benzamide]",do not show any appreciable inhibition,–,–
"Cc1ccc(S(=O)(=O)Nc2ccccc2C(=O)Nc2cc3ccccc3s2)cc1 [HL-0005, N-(benzo[b]thiophen-2-yl)-2-((4-methylphenyl)sulfonamido)benzamide]",do not show any appreciable inhibition,inhibition,mostly cell permeable
"N#Cc1c(NC(=O)c2ccccc2NS(=O)(=O)c2ccccc2)sc2c1CCC2 [HL-0010, N-(3-cyano-5,6-dihydro-4H-cyclopenta[b]thiophen-2-yl)-2-(phenylsulfonamido)benzamide]",do not show any appreciable inhibition,–,–

# Reference: patent US12065421B2, “Inhibitors of oplophorus luciferase-derived bioluminescent complexes” (priority 2018, dated 2024)
